According to PMC3298469, “A selective and potent CXCR3 antagonist SCH 546738 attenuates the development of autoimmune diseases and delays graft rejection” (BMC Immunology, 2012):

Columns and labels:
[1] = plasma pharmacokinetics after oral dosing in Lewis rat; type: in vivo; conditions: 10 mg/kg oral in 0.4% methylcellulose, n = 3, read-out: AUC (0-24 hr)
Method: SCH 546738 was tested at concentrations of 1-10 μM against a panel of 49 GPCR binding assays. Most of the assays were not affected by SCH 546738 (Table 2). […] In addition, SCH 546738 has a favourable pharmacokinetic profile in rodents. […] Therefore, SCH 546738 is suitable for in vivo preclinical studies.
Figure 4 Plasma concentration versus time profiles of SCH 546738 in Lewis rat and C57BL/6 mouse. SCH 546738 in 0.4% methylcellulose was administered orally at 10 mg/kg (mpk) in Lewis rats or 30 mpk in C57BL/6 mice. The plasma concentration of SCH 546738 in the blood was calculated as the mean of 3 animals (n = 3) at indicated time points post-dose. Their AUC from 0 to 24 hr is also calculated and indicated.

[2] = tested on: rat cardiac allograft; assay: rat cardiac allograft transplant model (ACI to Lewis); type: in vivo; conditions: for mean survival time of the graft (MST): vehicle MST = 6 days
Method: Cardiac graft of ACI (RT1a) rats was heterotopically transplanted into the abdominal cavity of Lewis (RT1^l) recipients employing a microvascular surgical technique as described. The grafts were monitored daily by abdominal palpation, and the complete cessation of heart contraction was defined as graft rejection. SCH 546738 or 0.4% methylcellulose (vehicle) was orally administered at the indicated dose (0.2 ml) twice a day, starting on the day before transplantation until the day of graft rejection. To test whether SCH 546738 enhanced the effect of conventional immunosuppressive reagent, the recipients were received treatment with subtherapeutic dose of CsA for one week combined with treatment with SCH 546738. Graft survival was analyzed using the log-rank test. The parametric data were analyzed by Student t test (2-tailed) using GraphPad InStat version 5.0.1 for Windows 98, GraphPad Software, San Diego California USA (http://www.graphpad.com). p < 0.05 was considered statistically significant.
SCH 546738 was administered orally twice daily at 1, 5 and 15 mpk. […] Graft survival was analyzed using the log-rank test.

[3] = target: T1, CXCR3 (Homo sapiens, UniProt P49682); assay: [125I]hCXCL10 competition binding (SPA, Ba/F3 membranes); set-up: expressed in transfected cells; host or cells: mouse pro-B Ba/F3 cells (vector pME18Sneo), membrane preparation
T1 sequence (P49682 1-368): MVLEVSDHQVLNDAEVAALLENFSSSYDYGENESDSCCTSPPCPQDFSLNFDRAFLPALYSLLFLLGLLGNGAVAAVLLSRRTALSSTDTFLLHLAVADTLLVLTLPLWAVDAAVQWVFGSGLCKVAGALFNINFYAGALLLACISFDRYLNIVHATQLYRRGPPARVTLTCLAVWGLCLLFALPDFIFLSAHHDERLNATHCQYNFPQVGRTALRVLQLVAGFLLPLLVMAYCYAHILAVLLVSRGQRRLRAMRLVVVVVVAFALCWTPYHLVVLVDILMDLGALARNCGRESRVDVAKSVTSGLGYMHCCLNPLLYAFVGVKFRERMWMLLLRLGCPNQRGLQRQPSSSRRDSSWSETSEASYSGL
Method: (§1) The cDNAs encoding human, mouse and rat CXCR3 were generated based on the published sequences: human (NM_001504), mouse (NM_009910), rat (NM_053415). The cDNAs for monkey and dog CXCR3 were cloned in the lab. All CXCR3 cDNAs were cloned into the mammalian expression vector pME18Sneo, a derivative of the SRα expression vector as described previously. IL-3-dependent mouse pro-B cells Ba/F3 were transfected to express CXCR3 of different species and cell membranes were prepared as described previously.
(§2) A scintillation proximity assay was used for radioligand competition binding assays as described previously with some modifications. For each assay point, 1 µg of membrane was preincubated for 1 hr with 300 µg wheat germ agglutinin (WGA) coated SPA beads (GE Healthcare Life Sciences) in the binding buffer (50 mM HEPES, 1 mM CaCl2, 5 mM MgCl2, 125 mM NaCl, 0.002% NaN3, 1.0% BSA) at room temperature. The beads were spun down, resuspended in the binding buffer and transferred to a 96-well Isoplate (Wallac, Gaithersburg, MD). The indicated concentrations of ^125I-hCXCL10, ^125I-hCXCL11 or ^35S-SCH 535390 with a series of titrations of SCH 546738 were added to start the reaction. After indicated reaction times at room temperature, the amount of radioactivity bound to the SPA beads was determined with a Wallac 1450 Microbeta counter (Wallac).
(§3) The ability of SCH 546738 to compete the binding of [^125I]hCXCL10 and [^125I]hCXCL11 to human CXCR3 receptor was determined using various concentrations of [^125I]hCXCL10 and [^125I]hCXCL11 as described in Methods. After 3 hr reaction, specific counts relative to input counts (B/B0) in the presence of increasing concentrations of SCH 546738 are plotted.

[4] = target: T1, CXCR3; assay: [125I]hCXCL11 competition binding (SPA, Ba/F3 membranes); set-up: expressed in transfected cells; host or cells: mouse pro-B Ba/F3 cells (vector pME18Sneo), membrane preparation
Method: as §1, §2, §3

CC[C@H]1CN(c2nc(N)c(C(N)=O)nc2Cl)CCN1C1CCN(Cc2ccc(Cl)cc2)CC1 [SCH 546738]
AUC(0-t) [1]: 7.7 µM·h
mean survival time of the graft (MST) ([2]; 1 mpk oral twice daily): 11 days
rate of permanent engraftment ([2]; 5 mpk SCH 546738 twice daily in combination with 2.5 mpk cyclosporine): 100%
mean survival time of the graft (MST) ([2]; 5 mpk oral twice daily): 14 days
mean survival time of the graft (MST) ([2]; 15 mpk oral twice daily): 14.9 days
IC50 ([3]; Human CXCR3, [125I]hCXCL10, read-out: IC50 (nM) (CXCL10)): 0.8 nM
IC50 ([3]; [125I-hIP-10] 100 pM, 3 hr reaction, read-out: IC50): 1 nM
IC50 ([3]; [125I-hIP-10] 500 pM, 3 hr reaction, read-out: IC50): 1.2 nM
IC50 ([3]; [125I]hCXCL10 25-500 pM, read-out: IC50 (constant, independent of input concentration)): ~1 nM
mode of antagonism of CXCL10 and CXCL11 binding to CXCR3 ([3]; both CXCL10 and CXCL11): non-competitive antagonist
IC50 ([3]; range over both radioligands CXCL10 and CXCL11, read-out: IC50 for displacing radiolabeled CXCL10 and CXCL11 from human CXCR3): 0.8 to 2.2 nM
IC50 ([4]; [125I-hI-TAC] 12.5 pM, 3 hr reaction, read-out: IC50): 2 nM
IC50 ([4]; [125I-hI-TAC] 50 pM, 3 hr reaction, read-out: IC50): 1.8 nM
IC50 ([4]; [125I-hI-TAC] 250 pM, 3 hr reaction, read-out: IC50): 2.2 nM
IC50 ([4]; [125I]hCXCL11 12.5-250 pM, read-out: IC50 (constant, independent of input concentration)): ~2 nM
